Values joined by “and” are separate entries in the source; they are usually repeats but may differ in a detail not shown here. Identical values can stand only once. “Also recorded” adds a separate entry of the source.
What was measured:
[1] = system: freshly isolated primary murine renal tubules; assay: RSL3-induced LDH release of freshly isolated kidney tubules; format: cell-based; conditions: RSL3 2 h; for LDH release: freshly isolated kidney tubules, 5 mM glycine, alone (DMSO) or with Fer-1 or Nec-1f; for Effect on RSL3-induced LDH release: freshly isolated tubules, glycine medium
Experimental: The LDH release of cells or of freshly isolated kidney tubules was measured according to manufacturers’ instructions at indicated time points. In brief, an aliquot of the supernatant was taken and Lysis Solution was added for 45 min to induce maximal LDH release before another aliquot of the supernatant was taken. Subsequently, the supernatants were incubated with CytoTox 96® Reagent for 15 min protected from light at room temperature before adding Stop Solution. Absorbance was measured at 490 nm.
Primary murine renal tubules were isolated following a modified previously established protocol. […] Kidney slices of each kidney were transferred in 2 ml reaction tube containing 2 mg/ml collagenase type II in incubation solution (48 μg/ml trypsin inhibitor, 25 μg/ml DNAse I, 140 mM NaCl, 0.4 mM KH2PO4, 1.6 mM K2HPO4 · 3 H2O, 1 mM MgSO4 · 7 H2O, 10 mM CH3COONa · 3 H2O, 1 mM α-ketoglytarate and 1.3 mM Ca-gluconate) and digested for 5 min at 37 °C, 850 rpm. Due to the presence of damaged tubules, the first resulting supernatant was discarded and 1 ml of 2 mg/ml collagenase type II in incubation solution was added to the kidney slices and digested for 5 min at 37 °C, 850 rpm. The supernatant was collected and transferred in a 2 ml reaction tube containing 1 ml ice-cold sorting solution (0.5 mg/ml bovine albumin in incubation solution). The reaction tubes were left on ice for the tubules to precipitate. The supernatant was removed and the tubules were washed twice with ice-cold incubation solution. Once the tubules precipitated the supernatant was removed and the ice-cold sorting solution was added (the volume was adjusted depending on the number of samples needed for the experiment). Tubules were distributed in a twenty-four-well plate containing Dulbecco’s Modified Eagle Medium F-12 Nutrient Mixture without phenol red (DMEM/F12, Thermo Fisher), supplemented with 0.01 mg/ml recombinant human insulin, 5.5 μg/ml human transferrin, 0.005 μg/ml sodium selenite (Na2SeO3) (ITS without linoleic acid, Sigma Aldrich), 50 nM hydrocortisone, 100 U/ml penicillin, and 100 μg/ml streptomycin (Pen/Strep, Thermo Fisher).
All of the experiments performed contain a negative control to assess LDH release at 0 h of incubation as a quality control. No more than 10% LDH release in these negative controls was tolerated. […] Isolated murine renal tubules were placed in twenty four-well plates containing the respective agents diluted in Dulbecco’s Modified Eagle Medium F-12 Nutrient Mixture without phenol red (DMEM/F12, Thermo Fisher), supplemented with 0.01 mg/ml recombinant human insulin, 5.5 μg/ml human transferrin, 0.005 μg/ml Na2SeO3 (ITS without linoleic acid, Sigma Aldrich), 50 nM hydrocortisone, 100 U/ml penicillin, and 100 μg/ml streptomycin (Pen/Strep, Thermo Fisher). […]

HT1080 cells = assay: CellTiter-Glo luminescent cell viability assay (ATP), dose-response; format: cell-based, human
Experimental: Cells were plated in an opaque-walled 96-well plate and treatment with ferroptosis inducers and/or ferroptosis inhibitors was initiated 24 h later. […] Here, the reaction agent was directly added to the wells, mixed on an orbital shaker for 2 min, and then incubated at room temperature for 10 min. The luminescence was detected using a Promega GloMax® instrument.

[2] = system: Mouse cortical tubule cells (MCT); assay: FINs/ferroptocide, 7-AAD/annexin V flow cytometry; format: cell-based; conditions: for double-negative events (7-AAD/annexin V): MCT, alone (DMSO) or with Fer-1 1 µM, Nec-1s 30 µM, Nec-1f 30 µM
Experimental: (§1) To induce necroptosis in a human cell line, HT29 cells were stimulated at the indicated time points with 20 ng/ml human TNFα (Biolegend), 1 μM SMAC-mimetics (Birinapant, Chemietek), and 20 μM zVAD-fmk (Selleckchem, herein referred to as zVAD). For the induction of necroptosis in NIH3T3 cells, cells were incubated with 20 ng/ml TNF-α and 20 μM zVAD for indicated time points. […] Cells were seeded in six-well plates or petri dishes. […] After indicated time points, cells were collected and prepared for flow cytometry, immunoblotting, and/or LDH release assays.
Cells were harvested and the pellets were washed twice in PBS and stained with 5 μl of 7-AAD (BD Biosciences) and 5 μl of annexin-V-FITC (BD Biosciences) added to 100 μl annexin-V binding buffer (BD Biosciences). After 15 min, cells were recorded on the LSRII with the FACS Diva 6.1.1 software (BD Biosciences) and subsequently analyzed with the FlowJo v10 software (Tree Star).

MLKL = assay: Western blot of pMLKL (S358) in TSZ-treated HT29 cells; format: cell-based, human; conditions: Nec-1s 10 µM, Fer-1 1 µM, Nec-1f 10 µM
Experimental: as §1
Cells were lysed in ice-cold 10 mM Tris-HCl, pH 7.5, 50 mM NaCl, 1% Triton X-100, 30 mM sodium pyrophosphate, 50 mM NaF, 100 μM Na3VO4, 2 μM ZnCl2, and 1 mM phenylmethylsulfonyl fluoride (PMSF, modified Frackelton buffer) for 30 min on ice. Insoluble material was removed by centrifugation (14 000×g, 30 min, 4 °C). Protein concentration was determined using a commercial Bradford assay kit according to the manufacturer’s instructions (Thermo Fisher). Equal amounts of protein (typically 30 μg per lane) were resolved on a 4%−15% gradient SDS/PAGE gel and transferred to a PVDF membrane (BIO-RAD). Primary antibody incubation was performed for anti-pS166-RIPK1 (Cell Signaling, Cat# 65746, 1:1000 dilution), anti-pS358-MLKL, (Abcam, ab187091, 1:1000 dilution), anti-MLKL (Genetex, GTX107538, 1:1000 dilution) and anti-β-Actin (Cell Signaling, Cat# 3700S, 1:1000 dilution). Secondary antibodies (anti-mouse, HRP-linked antibody, Cell Signaling, Cat# 7076S; anti-rabbit, HRP-linked antibody, Cell Signaling, Cat# 7074S) were applied at concentrations of 1:5.000 (also see Supplementary Table 1 for details). Proteins were then visualized by enhanced chemiluminescence (ECL; Amersham Biosciences).

[3] = HT1080 + Erastin, inhibitor concentration 0.01 (unit not given)
[4] = HT1080 + Erastin, inhibitor concentration 0.1 (unit not given)
[5] = HT1080 + Erastin, inhibitor concentration 1 (unit not given)
[6] = HT1080 + Erastin, inhibitor concentration 10 (unit not given)
[7] = HT1080 + Erastin, inhibitor concentration 30 (unit not given)
[8] = HT1080 + Ferroptocide, inhibitor concentration 0.01 (unit not given)
[9] = HT1080 + RSL3, inhibitor concentration 0.01 (unit not given)
[10] = HT1080 + RSL3, inhibitor concentration 0.1 (unit not given)
[11] = HT1080 + RSL3, inhibitor concentration 1 (unit not given)
[12] = HT1080 + RSL3, inhibitor concentration 10 (unit not given)

SMILES	LDH release [1]	Effect on RSL3-induced LDH release [1]	ATP luminescence (CellTiterGlo) (HT1080 cells; [3])	ATP luminescence (CellTiterGlo) (HT1080 cells; [4])	ATP luminescence (CellTiterGlo) (HT1080 cells; [5])	ATP luminescence (CellTiterGlo) (HT1080 cells; [6])	ATP luminescence (CellTiterGlo) (HT1080 cells; [7])	ATP luminescence (CellTiterGlo) (HT1080 cells; [8])	ATP luminescence (CellTiterGlo) (HT1080 cells; [9])	ATP luminescence (CellTiterGlo) (HT1080 cells; [10])	ATP luminescence (CellTiterGlo) (HT1080 cells; [11])	ATP luminescence (CellTiterGlo) (HT1080 cells; [12])	double-negative events (7-AAD/annexin V) ([2]; 1.13 µM RSL3 6 h)	double-negative events (7-AAD/annexin V) ([2]; 5 µM erastin 24 h)	double-negative events (7-AAD/annexin V) ([2]; 10 µM FIN56 24 h)	Phosphorylation of MLKL (pS358), western blot (MLKL)	further results
CCOC(=O)c1ccc(NC2CCCCC2)c(N)c1 [Fer-1, ferrostatin-1]	22.94% and 23.84% and 16.99%	significantly attenuated	8.302%	100.351%	97.0601%	92.1314%	88.0064%	2.0385% and 1.258%	46.842% and 51.9737%	61.3859% and 117.078%	60.0511% and 109.723%	58.2722% and 113.348%	96.6% and 93.5% and 69%	79.5% and 84.2% and 82.8% and 86.9%	89.5% and 93.6% and 90.5%	did not prevent MLKL-phosphorylation	Effect on RSL3- and FINO2-induced ferroptosis ([2]; MCT cells): reversed; double-negative events (7-AAD/annexin V) ([2]; 10 µM FINO2 24 h): 96% and 77.1% and 92.8% and 95.9% and 89.7%; double-negative events (7-AAD/annexin V) ([2]; 10 µM ferroptocide 24 h): 86.2% and 85.5% and 72.2% and 89.6% and 67.8% and 73.5%
CN1C(=O)C(Cc2c[nH]c3c(Cl)cccc23)NC1=S (centres unmarked) [Nec-1f]	18.43% and 23.14% and 28.56%	reduction of LDH release; also recorded: significantly attenuated	6.81%	7.52%	8.325%	21.5066%	111.285%	1.591% and 1.035%	48.1449% and 58.3128%	48.8384% and 72.7198%	51.482% and 85.4435%	49.7032% and 98.9558%	93.7% and 87.8% and 51.4%	79.8% and 85.4% and 81.9% and 88.8%	93.7% and 87.9% and 91.7%	prevented phosphorylation	ATP luminescence (CellTiterGlo) (HT1080 cells; HT1080 + Ferroptocide, inhibitor concentration 0.1 (unit not given)): 1.25% and 2.131%; ATP luminescence (CellTiterGlo) (HT1080 cells; HT1080 + Ferroptocide, inhibitor concentration 1 (unit not given)): 5.941% and 7.943%; ATP luminescence (CellTiterGlo) (HT1080 cells; HT1080 + Ferroptocide, inhibitor concentration 10 (unit not given)): 11.997% and 7.702%; ATP luminescence (CellTiterGlo) (HT1080 cells; HT1080 + RSL3, inhibitor concentration 30 (unit not given)): 46.9784% and 93.7693%; Effect on FINO2-induced death ([2]; MCT cells): failed to prevent; Effect on RSL3-induced annexin V / 7-AAD positivity ([2]; MCT cells): inhibited

From paper PMC8292346, “Dysfunction of the key ferroptosis-surveilling systems hypersensitizes mice to tubular necrosis during acute kidney injury” (Nature Communications, 2021)
